The values below come from ChEMBL document CHEMBL4152373 (Bioorg Med Chem, 2018).

A short description of data set [1]: Octanol-PBS buffer partition coefficient, log D of the compound at pH 7.4 by HPLC method.
Data set [2] can be described thus: Octanol-PBS buffer partition coefficient, log D of the compound at pH 7.4 by shake flask method.
A short description of data set [3]: Fraction unbound in rat plasma at 5 uM after 4 hrs by equilibrium dialysis method. On the technique in general: In equilibrium dialysis only unbound substance equilibrates across the membrane.
Data set [4] in a line: Fraction unbound in mouse plasma at 5 uM after 4 hrs by equilibrium dialysis method.
For data set [5], the system named is Rattus norvegicus. Briefly: Unbound clearance in Sprague-Dawley rat at 1 mg/kg, iv administered as single dose by LC-MS/MS analysis. The data set is classed as ADME, organism-based. The note with it: in vivo.
The nature of data set [6]: Half life in Sprague-Dawley rat at 1 mg/kg, iv administered as single dose by LC-MS/MS analysis. The data set is classed as ADME, organism-based. The note with it: in vivo.
Data set [7] is described as follows: Oral bioavailability in Sprague-Dawley rat at 3 mg/kg administered via gavage as single dose by LC-MS/MS analysis. In kind it is ADME, organism-based. The note with it: in vivo.
The subject of data set [8] is Rattus norvegicus. Briefly: Dose normalized unbound AUC in Sprague-Dawley rat at 3 mg/kg, po administered via gavage as single dose by LC-MS/MS analysis. The data set is classed as ADME, organism-based. The note with it: in vivo.
The subject of data set [9] is Mus musculus. Briefly: Dose normalized unbound AUC in C57Bl/6J mouse at 3 mg/kg, po administered via gavage as single dose by LC-MS/MS analysis. The note with it: in vivo. The data set is classed as ADME, organism-based.
Data set [10] concerns Mus musculus. Briefly: Antidiabetic activity in C57Bl/6J mouse assessed as inhibition of blood glucose AUC (0 to 120 mins) at […], po treated prior to glucose challenge by OGTT relative to control. In kind it is functional. The note with it: AT84, po.
For data set [11], the system named is Mus musculus. Briefly: Dose normalized unbound AUC in C57Bl/6J mouse at 50 mg/kg, po administered via gavage as single dose by LC-MS/MS analysis. In kind it is ADME, organism-based. The note with it: in vivo.
For data set [12], the system named is Mus musculus. Briefly: Antidiabetic activity in C57Bl/6J mouse assessed as inhibition of blood glucose AUC (0 to 120 mins) at 50 mg/kg, po treated prior to glucose challenge by OGTT relative to control. In kind it is functional.

Molecules are shown by their SMILES.

Turning to `CC(C)[C@H](C(=O)Nc1nccs1)c1ccc(Cl)cc1`, the results for the pH-dependent lipophilicity (logD) in data set [1] and in [2] were 3.9 to 4.08 and 3.94, respectively. Moreover, the unbound share (fraction unbound) (commonly the share of the substance not bound to proteins or other matrix) at 4 h, 5 µM is 0.0062 in data set [3] and 0.0052 in data set [4]. In the data set on Rattus norvegicus [5], this compound had a CL free of 6666 mL/min/kg. Further, in [6], the half-life – broadly, the time needed for the level to fall by half in the phase considered – was found to be 3.67 h. Moreover, the bioavailability (commonly dose-corrected exposure relative to a reference, in per cent) in data set [7] turned out to be 15%. The fAUC/dose with Rattus norvegicus [8] came out at 0.08 µM·min; with Mus musculus [9] it was 0.045 µM·min. Moreover, the inhibition in vivo (usually the relative decrease from the control value, in per cent) at […] in the data set on Mus musculus [10] came out at 7%.

In the case of `CN(C(=O)[C@@H](CC(=O)O)CC1CCCC1)c1nc(-c2ccccc2Cl)cs1`, the logD – broadly, the decadic logarithm of the distribution of all forms, ionised or not, between an organic phase and buffer at a given pH – is 2.74 to 2.9 in [1] and 2.87 in [2].

In the case of `CN(C(=O)[C@@H](CC(=O)O)Cc1ccccc1)c1nc(-c2ccccc2Cl)cs1`, the logD in data set [1] is 2.13 to 2.3; in data set [2], 2.31. For the same compound, the fraction unbound at 4 h, 5 µM came to 0.0008 in data set [3] and 0.0015 in data set [4]. Moreover, the CL free in the data set on Rattus norvegicus [5] is 738 mL/min/kg. Moreover, in data set [6], the half-life was 8.03 h. Further, the bioavailability in data set [7] came to 77%. The fAUC/dose with Rattus norvegicus [8] was 2.4 µM·min; in the data set with Mus musculus [11], 2 µM·min. In the data set with Mus musculus [12], the inhibition in vivo at 50 mg/kg is -8%.

`CC(C)C[C@H](CC(=O)O)C(=O)N(c1nc(-c2ccccc2-c2ccc(-n3cccn3)nc2)cs1)C1CC1` had a pH-dependent lipophilicity (logD) in data set [1] of 2.4. For the same compound, the free fraction (fraction unbound) at 4 h, 5 µM in data set [3] is 0.0057; in data set [4] it was 0.0075. In the data set with Rattus norvegicus [5], the CL free worked out at 1091 mL/min/kg. The compound further yielded a half-life in [6] of 4.67 h. Further, the bioavailability in data set [7] turned out to be 29%. Besides, the fAUC/dose was found to be 0.55 µM·min in the data set with Rattus norvegicus [8] and 3.3 µM·min with Mus musculus [11]. In the data set on Mus musculus [12], the inhibition in vivo at 50 mg/kg stood at 26%.

In data set [1], `CN(C(=O)[C@H](CC(=O)O)Cc1ccccc1)c1nc(-c2ccccc2Cl)cs1` had a logD of 2.3.

In turn, `COc1ccc(-c2ccc(Cl)cc2-c2csc(N(C(=O)[C@@H](CC(=O)O)Cc3ccco3)C3CC3)n2)cn1` displayed a logD in [1] of 2.5. Moreover, the fraction unbound at 4 h, 5 µM was determined as 0.0026 in [3] and 0.0041 in [4]. The same compound returned a CL free in the data set with Rattus norvegicus [5] of 2738 mL/min/kg. The compound also had a half-life in data set [6] of 9.65 h. Also, in [7], the bioavailability was determined as 38%. Besides, the figures for the fAUC/dose with Rattus norvegicus [8] and in the data set on Mus musculus [11] were 0.26 µM·min and 1.2 µM·min, respectively. The inhibition in vivo at 50 mg/kg with Mus musculus [12] worked out at 32%.

Compound `O=C(O)C[C@@H](Cc1ccccc1)C(=O)N(c1nc(-c2ccccc2Cl)cs1)C1CC1` gave a logD in data set [1] of 2.3. Moreover, the fraction unbound at 4 h, 5 µM in [3] stood at 0.0016; in data set [4], 0.0025. In the data set on Rattus norvegicus [5], the CL free was 1044 mL/min/kg. The compound further had a half-life in data set [6] of 5.32 h. The bioavailability in data set [7] was 52%. In addition, the figures for the fAUC/dose with Rattus norvegicus [8] and in the data set with Mus musculus [11] were 0.7 µM·min and 4.7 µM·min, respectively. The inhibition in vivo at 50 mg/kg with Mus musculus [12] was determined as 1%.

Compound `O=C(O)C[C@@H](CC1CCCC1)C(=O)N(c1nc(-c2ccccc2-c2ccc(-n3cccn3)nc2)cs1)C1CC1` registered a log distribution coefficient (logD) in data set [1] of 3.1. The fraction unbound at 4 h, 5 µM in data set [3] is 0.0013; in data set [4] it was 0.0014. The compound also showed a CL free in the data set with Rattus norvegicus [5] of 6692 mL/min/kg. For the same compound, the half-life in data set [6] was found to be 2.58 h. In addition, the bioavailability in data set [7] was determined as 25%. In addition, the fAUC/dose was 0.07 µM·min in the data set on Rattus norvegicus [8] and 0.53 µM·min in the data set with Mus musculus [11]. The inhibition in vivo at 50 mg/kg in the data set with Mus musculus [12] turned out to be 40%.

In data set [1], `COc1ccc(-c2ccccc2-c2csc(N(C(=O)[C@@H](CC(=O)O)CC(C)C)C3CC3)n2)cn1` showed a logD of 2.2. Besides, the figures for the fraction unbound at 4 h, 5 µM in data set [3] and in data set [4] were 0.0066 and 0.0107, respectively. In addition, in the data set with Rattus norvegicus [5], the CL free stood at 342 mL/min/kg. In [6], the half-life worked out at 7.18 h. In addition, the bioavailability in [7] turned out to be 35%. For the same compound, the fAUC/dose was 2.1 µM·min in the data set on Rattus norvegicus [8] and 4.7 µM·min in the data set with Mus musculus [11]. Moreover, the inhibition in vivo at 50 mg/kg in the data set with Mus musculus [12] turned out to be 19%.

The compound `O=C(O)C[C@@H](Cc1ccccc1)C(=O)N(c1nc(-c2cc(Cl)ccc2Cl)cs1)C1CC1` registered a log distribution coefficient (logD) in data set [1] of 3. The fraction unbound at 4 h, 5 µM in data set [3] and in data set [4] was 0.0001 throughout. This compound also gave a CL free with Rattus norvegicus [5] of 2800 mL/min/kg. Moreover, the half-life in [6] turned out to be 9.83 h. In [7], this compound gave a bioavailability of 47%. In addition, the figures for the fAUC/dose in the data set with Rattus norvegicus [8] and in the data set on Mus musculus [11] were 0.26 µM·min and 0.32 µM·min, respectively. Besides, the inhibition in vivo at 50 mg/kg in the data set on Mus musculus [12] is 5%.

As for `CN(C(=O)[C@@H](CC(=O)O)CC1CCOCC1)c1nc(-c2ccccc2Cl)cs1`, the values for the logD in [1] and in data set [2] were 1.27 to 1.3 and 1.27, respectively.
